From patent publication US9914730B2, “Azaquinazoline inhibitors of Atypical protein Kinase C” (Ignyta, Inc., priority 2012, dated 2018) come the findings set out here.

This assay has as its target T1, full-length human PKCι (Homo sapiens, UniProt P41743).
T1 construct: Recombinant, full-length human PKCι expressed in Sf21 insect cells is also commercially available; purchased; host or cells: Sf21 insect cells
T1 sequence (P41743 1-596): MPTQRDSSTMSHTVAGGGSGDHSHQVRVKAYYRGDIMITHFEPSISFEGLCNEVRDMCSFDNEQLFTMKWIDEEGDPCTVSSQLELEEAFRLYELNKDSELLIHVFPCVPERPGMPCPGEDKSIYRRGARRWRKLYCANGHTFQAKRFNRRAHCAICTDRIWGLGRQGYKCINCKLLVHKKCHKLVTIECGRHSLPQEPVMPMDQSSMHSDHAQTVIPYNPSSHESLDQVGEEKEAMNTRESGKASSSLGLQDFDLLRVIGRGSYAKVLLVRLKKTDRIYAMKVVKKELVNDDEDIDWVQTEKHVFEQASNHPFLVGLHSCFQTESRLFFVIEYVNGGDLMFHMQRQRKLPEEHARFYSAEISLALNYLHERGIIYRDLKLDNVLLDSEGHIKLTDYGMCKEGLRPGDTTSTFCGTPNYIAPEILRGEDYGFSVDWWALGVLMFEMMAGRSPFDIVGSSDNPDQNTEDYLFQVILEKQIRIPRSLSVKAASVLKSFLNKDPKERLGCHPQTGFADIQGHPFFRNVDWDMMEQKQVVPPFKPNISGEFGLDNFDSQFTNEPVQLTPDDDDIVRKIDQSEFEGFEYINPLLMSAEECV
Description: PKCι IC50 IMAP assay, full-length PKCι at 150 μM ATP. In kind it is biochemical. To be noted: read-out: IC50 in IMAP assay against full length PKCi at 150 μM ATP. Summed up: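 Dose-response IC50 values come from IMAP fluorescence polarisation after 60 min room-temperature turnover of 100 nM FAM peptide by ~15 pM insect-cell-expressed full-length PKCι at 150 μM ATP (5× KM^APP), normalised to no-compound and no-enzyme controls.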

SMILES strings stand for the structures. Bounds are passed on as bounds.

For the molecule `N[C@H](CNc1nc(-c2ccncc2)nc2c(-c3cccc(O)c3)nccc12)Cc1ccccc1` [Example 92, 3-(4-{[(2S)-2-amino-3-phenylpropyl]-amino}-2-(pyridin-4-yl)-pyrido[3,4-d]-pyrimidin-8-yl)phenol], the IC50 was in the range of 1000 to 10000 nM.

As for `CCCc1ccc(F)c(Nc2cc(-c3nc(N4CCNCC4)c4c(C5CC5)cncc4n3)ccn2)c1` [Example 640, [4-(5-Cyclopropyl-4-piperazin-1-yl-pyrido[3,4-d]pyrimidin-2-yl)-pyridin-2-yl]-(2-fluoro-5-propyl-phenyl)-amine], the IC50 was below 100 nM.

For `Fc1cccc(F)c1Nc1cc(-c2nc(N[C@@H]3CCNC3)c3c(C4CC4)cncc3n2)ccn1` [Example 2035, {5-Cyclopropyl-2-[2-(2,6-difluoro-phenylamino)-pyridin-4-yl]-pyrido[3,4-d]pyrimidin-4-yl}-(R)-pyrrolidin-3-yl-amine], the IC50 is below 100 nM.

On to `Oc1nc(-c2ccnc(Nc3cccc(CN4CCNCC4)c3)c2)nc2cnccc12` [Example 498, 2-[2-(3-piperazin-1-ylmethyl-phenylamino)-pyridin-4-yl]-pyrido[3,4-d]pyrimidin-4-ol], for which the IC50 fell in the range of 10000 to 40000 nM.

As to `Fc1cc(F)c(F)c(Nc2cc(-c3nc(NC4CCNCC4)c4c(C5CC5)cncc4n3)ccn2)n1` [Example 2062, {5-Cyclopropyl-2-[2-(3,4,6-trifluoro-pyridin-2-ylamino)-pyridin-4-yl]-pyrido[3,4-d]pyrimidin-4-yl}-piperidin-4-yl-amine], the IC50 is below 100 nM.

As for `COc1cncc2nc(-c3ccnc(NC(=O)Cc4ccc(Cl)cc4)c3)nc(N3CCNCC3)c12` [Example 369, 2-(4-Chloro-phenyl)-N-[4-(5-methoxy-4-piperazin-1-yl-pyrido[3,4-d]pyrimidin-2-yl)-pyridin-2-yl]-acetamide], the IC50 is below 100 nM.

In the case of `CC(O)c1ccccc1Nc1cc(-c2nc(N3CCNCC3)c3c(C4CC4)cncc3n2)ccn1` (centres unmarked) [Example 560, 1-{2-[4-(5-Cyclopropyl-4-piperazin-1-yl-pyrido[3,4-d]pyrimidin-2-yl)-pyridin-2-ylamino]-phenyl}-ethanol], the IC50 lay in the range of 100 to 1000 nM.

Regarding `Fc1cccc(F)c1Nc1cc(-c2nc(C3=CCNCC3)c3c(C4CC4)cncc3n2)ccn1` [Example 789, {4-[5-Cyclopropyl-4-(1,2,3,6-tetrahydro-pyridin-4-yl)-pyrido[3,4-d]pyrimidin-2-yl]-pyridin-2-yl}-(2,6-difluoro-phenyl)-amine], the IC50 fell in the range of 100 to 1000 nM.

On to `CNc1cc(-c2nc(N3CCNCC3)c3c(C4CC4)cncc3n2)ccn1` [Example 630, [4-(5-Cyclopropyl-4-piperazin-1-yl-pyrido[3,4-d]pyrimidin-2-yl)-pyridin-2-yl]-methyl-amine], for which the IC50 was below 100 nM.

`COc1cccc(Nc2cc(-c3nc(N4CCNCC4)c4c(C5CC5)cncc4n3)ccn2)c1F` [Example 589, [4-(5-Cyclopropyl-4-piperazin-1-yl-pyrido[3,4-d]pyrimidin-2-yl)-pyridin-2-yl]-(2-fluoro-3-methoxy-phenyl)-amine]: the IC50 was below 100 nM.

As to `N#Cc1ccc(Nc2cc(-c3nc(N4CCNCC4)c4c(C5CC5)cncc4n3)ccn2)cn1` [Example 506, 5-[4-(5-Cyclopropyl-4-piperazin-1-yl-pyrido[3,4-d]pyrimidin-2-yl)-pyridin-2-ylamino]-pyridine-2-carbonitrile], the IC50 is 100 to 1000 nM.

With `FC[C@H]1CN(c2nc(-c3ccnc(Nc4cc(C(F)(F)F)ccn4)c3)nc3cncc(C4CC4)c23)CCN1` [Example 511, {4-[5-Cyclopropyl-4-((R)-3-fluoromethyl-piperazin-1-yl)-pyrido[3,4-d]pyrimidin-2-yl]-pyridin-2-yl}-(4-trifluoromethyl-pyridin-2-yl)-amine], the half-inhibitory concentration (IC50) lay within 100 to 1000 nM.

For the molecule `OC1CCC(Nc2cc(-c3nc(N4CCNCC4)c4c(C5CC5)cncc4n3)ccn2)CC1` (centres unmarked) [Example 633, 4-[4-(5-Cyclopropyl-4-piperazin-1-yl-pyrido[3,4-d]pyrimidin-2-yl)-pyridin-2-ylamino]-cyclohexanol], the IC50 is below 100 nM.

Regarding `Fc1ccc(OC(F)(F)F)cc1Nc1cc(-c2nc(N3CCNCC3)c3c(C4CC4)cncc3n2)ccn1` [Example 555, [4-(5-Cyclopropyl-4-piperazin-1-yl-pyrido[3,4-d]pyrimidin-2-yl)-pyridin-2-yl]-(2-fluoro-5-trifluoromethoxy-phenyl)-amine], the IC50 lay within 100 to 1000 nM.

Turning to `N#Cc1ccnc2c1ccn2-c1cc(-c2nc(N[C@@H]3CCNC3)c3ccncc3n2)ccn1` [Example 328, 1-{4-[4-((R)-Pyrrolidin-3-ylamino)-pyrido[3,4-d]pyrimidin-2-yl]-pyridin-2-yl}-1H-pyrrolo[2,3-b]pyridine-4-carbonitrile], the IC50 was in the range of 1000 to 10000 nM.

For `COc1cncc2nc(-c3ccnc(Nc4cccc(C#N)c4)c3)nc(N3CCNCC3)c12` [Example 205, 3-[4-(5-Methoxy-4-piperazin-1-yl-pyrido[3,4-d]pyrimidin-2-yl)-pyridin-2-ylamino]-benzonitrile], the IC50 was 100 to 1000 nM.

Turning to `COc1cncc2nc(-c3ccnc(Nc4ccncn4)c3)nc(N3CCNCC3)c12` [Example 211, [4-(5-Methoxy-4-piperazin-1-yl-pyrido[3,4-d]pyrimidin-2-yl)-pyridin-2-yl]-pyrimidin-4-yl-amine], the IC50 is below 100 nM.

Turning to `c1cc(C2CC2)n2nc(Nc3cc(-c4nc(N5CCNCC5)c5c(C6CC6)cncc5n4)ccn3)nc2c1` [Example 825, [4-(5-Cyclopropyl-4-piperazin-1-yl-pyrido[3,4-d]pyrimidin-2-yl)-pyridin-2-yl]-(5-cyclopropyl-[1,2,4]triazolo[1,5-a]pyridin-2-yl)-amine], the IC50 was below 100 nM.

For the molecule `C[C@@H]1CN(c2nc(-c3ccnc(Nc4nc(F)c(F)cc4F)c3)nc3cncc(C4CC4)c23)C[C@H](C)N1` [Example 828, {4-[5-Cyclopropyl-4-((3R,5S)-3,5-dimethyl-piperazin-1-yl)-pyrido[3,4-d]pyrimidin-2-yl]-pyridin-2-yl}-(3,5,6-trifluoro-pyridin-2-yl)-amine], the IC50 was below 100 nM.

As to `COc1cncc2nc(-c3ccnc(Nc4cncnc4)c3)nc(N3CCNCC3)c12` [Example 386, [4-(5-Methoxy-4-piperazin-1-yl-pyrido[3,4-d]pyrimidin-2-yl)-pyridin-2-yl]-pyrimidin-5-yl-amine], the IC50 was 100 to 1000 nM.

With `COc1ncccc1Nc1cc(-c2nc(N3CCNCC3)c3c(C4CC4)cncc3n2)ccn1` [Example 513, [4-(5-Cyclopropyl-4-piperazin-1-yl-pyrido[3,4-d]pyrimidin-2-yl)-pyridin-2-yl]-(2-methoxy-pyridin-3-yl)-amine], the IC50 is below 100 nM.

For `CC1(C)C(=O)Nc2nccc(-c3nc(N4CCNCC4)c4c(C5CC5)cncc4n3)c21` [Example 2211, 4-(5-Cyclopropyl-4-piperazin-1-yl-pyrido[3,4-d]pyrimidin-2-yl)-3,3-dimethyl-1,3-dihydro-pyrrolo[2,3-b]pyridin-2-one], the IC50 was in the range of 1000 to 10000 nM.

On to `Fc1ccc(Nc2cc(-c3nc(N4CCNCC4)c4c(C5CC5)cncc4n3)c(F)cn2)cc1` [Example 765, [4-(5-Cyclopropyl-4-piperazin-1-yl-pyrido[3,4-d]pyrimidin-2-yl)-5-fluoro-pyridin-2-yl]-(4-fluoro-phenyl)-amine], for which the IC50 is below 100 nM.

Turning to `Fc1cc(F)c2nc(Nc3cc(-c4nc(N5CCNCC5)c5c(C6CC6)cncc5n4)ccn3)nn2c1` [Example 2040, [4-(5-Cyclopropyl-4-piperazin-1-yl-pyrido[3,4-d]pyrimidin-2-yl)-pyridin-2-yl]-(6,8-difluoro-[1,2,4]triazolo[1,5-a]pyridin-2-yl)-amine], the IC50 is below 100 nM.

In the case of `FC(F)(F)c1cccc(Nc2cc(-c3nc(N4CCNCC4)c4c(C5CC5)cncc4n3)ccn2)c1` [Example 646, [4-(5-Cyclopropyl-4-piperazin-1-yl-pyrido[3,4-d]pyrimidin-2-yl)-pyridin-2-yl]-(3-trifluoromethyl-phenyl)-amine], the IC50 was below 100 nM.

As for `c1cc(-c2nc(N[C@@H]3CCOC3)c3ccncc3n2)ccn1` [Example 42, N-[(3R)-oxolan-3-yl]-2-(pyridin-4-yl)-pyrido[3,4-d]-pyrimidin-4-amine], the IC50 was 10000 to 40000 nM.

Take `COc1cncc2nc(-c3ccnc(Nc4cccc(C(F)(F)F)c4)c3)nc(N3CCNCC3)c12` [Example 446, [4-(5-Methoxy-4-piperazin-1-yl-pyrido[3,4-d]pyrimidin-2-yl)-pyridin-2-yl]-(3-trifluoromethyl-phenyl)-amine]: the IC50 fell in the range of 100 to 1000 nM.

Regarding `COC[C@H]1CN(c2nc(-c3ccnc4[nH]ccc34)nc3cncc(OC)c23)CCN1` [Example 1205, 5-Methoxy-4-((R)-3-methoxymethyl-piperazin-1-yl)-2-(1H-pyrrolo[2,3-b]pyridin-4-yl)-pyrido[3,4-d]pyrimidine], the IC50 was 100 to 1000 nM.

For the molecule `COc1cncc2nc(-c3ccnc(NC(=O)Cc4ccccc4)c3)nc(N3CCNCC3)c12` [Example 371, N-[4-(5-Methoxy-4-piperazin-1-yl-pyrido[3,4-d]pyrimidin-2-yl)-pyridin-2-yl]-2-phenyl-acetamide], the IC50 is below 100 nM.

In general, IC50 refers to the concentration that gives 50% inhibition.
